Data: the NIST ThermoML archive (doi:10.1016/j.jct.2019.02.011)

Experiment: xn = mol fraction of the nth substance listed
Conditions: 298.15 K, Liquid, Vibrating tube method

COC(=O)OC [dimethyl carbonate] + CCO
mass density [kg/m3]
Conditions | 5000 kPa | 10000 kPa | 15000 kPa | 20000 kPa
x1 = 0.0252 | – | 803.35 | 807.39 | 811.05
x1 = 0.0506 | – | 812.8 | 816.89 | 820.61
x1 = 0.0757 | – | 822.06 | 826.15 | 829.93
x1 = 0.1003 | – | 830.89 | 834.98 | 838.77
x1 = 0.1508 | – | 848.67 | 852.81 | 856.66
x1 = 0.2 | – | 865.45 | 869.59 | 873.46
x1 = 0.2547 | – | 883.47 | 887.66 | 891.55
x1 = 0.3002 | – | 897.98 | 902.17 | 906.13
x1 = 0.3498 | – | 913.35 | 917.59 | 921.56
x1 = 0.4 | – | 928.49 | 932.73 | 936.77
x1 = 0.449 | – | 942.66 | 946.91 | 950.95
x1 = 0.4996 | – | 956.85 | 961.1 | 965.16
x1 = 0.5507 | – | 970.71 | 974.95 | –
x1 = 0.6005 | – | 983.64 | 987.89 | –
x1 = 0.6455 | – | 994.96 | 999.21 | –
x1 = 0.6931 | – | 1006.53 | 1010.78 | –
x1 = 0.7502 | 1015.36 | 1019.85 | 1024.1 | –
x1 = 0.8009 | 1026.8 | 1031.29 | 1035.55 | –
x1 = 0.8505 | 1037.56 | 1042.06 | 1046.31 | –
x1 = 0.9008 | 1048.13 | 1052.63 | 1056.89 | –
x1 = 0.9255 | 1053.19 | 1057.7 | 1061.95 | –
x1 = 0.9477 | 1057.69 | 1062.19 | 1066.43 | –
x1 = 0.9735 | 1062.83 | 1067.34 | 1071.56 | –
x1 = 1 | 1068 | 1072.51 | 1076.72 | –
